Laboratory results published in the supplement of paper PMC10307832.

What was measured:
Assay in all cases: relative viability (nuclei count vs DMSO), 5 days (fraction); higher = more cells survive
Alisertib + Navitoclax = compound: COc1cc(Nc2ncc3c(n2)-c2ccc(Cl)cc2C(c2c(F)cccc2OC)=NC3)ccc1C(=O)O [Alisertib] + CC1(C)CCC(c2ccc(Cl)cc2)=C(CN2CCN(c3ccc(C(=O)NS(=O)(=O)c4ccc(N[C@H](CCN5CCOCC5)CSc5ccccc5)c(S(=O)(=O)C(F)(F)F)c4)cc3)CC2)C1 [Navitoclax] (partner 0.5 µM)
Procedure, shortened: (§1)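 Lung cancer cell lines were pin-tool dosed in 1536-well plates on the day after seeding, with either a lone drug or a fixed anchor-drug dose plus five library-drug doses (not always all listed) in √10 steps. Nuclei were counted on 4× images after 5 days. Relative viability is the ratio of treated-well to vehicle-well nuclei counts, with each value a median of duplicate plates.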

Alisertib + Luminespib = compound: COc1cc(Nc2ncc3c(n2)-c2ccc(Cl)cc2C(c2c(F)cccc2OC)=NC3)ccc1C(=O)O [Alisertib] + CCNC(=O)c1noc(-c2cc(C(C)C)c(O)cc2O)c1-c1ccc(CN2CCOCC2)cc1 [Luminespib] (partner 0.01 µM)
Procedure, shortened: as §1

Alisertib + Foretinib = compound: COc1cc(Nc2ncc3c(n2)-c2ccc(Cl)cc2C(c2c(F)cccc2OC)=NC3)ccc1C(=O)O [Alisertib] + COc1cc2c(Oc3ccc(NC(=O)C4(C(=O)Nc5ccc(F)cc5)CC4)cc3F)ccnc2cc1OCCCN1CCOCC1 [Foretinib] (partner 0.25 µM)
Procedure, shortened: as §1

Alisertib + Linsitinib = compound: COc1cc(Nc2ncc3c(n2)-c2ccc(Cl)cc2C(c2c(F)cccc2OC)=NC3)ccc1C(=O)O [Alisertib] + C[C@]1(O)C[C@@H](c2nc(-c3ccc4ccc(-c5ccccc5)nc4c3)c3c(N)nccn32)C1 [Linsitinib] (partner 1 µM)
Procedure, shortened: as §1

Cell Line | relative viability (Alisertib + Navitoclax; first compound 0.005 µM) | relative viability (Alisertib + Navitoclax; first compound 0.01581 µM) | relative viability (Alisertib + Navitoclax; first compound 0.05 µM) | relative viability (Alisertib + Navitoclax; first compound 0.1581 µM) | relative viability (Alisertib + Navitoclax; first compound 0.5 µM) | relative viability (Alisertib + Luminespib; first compound 0.005 µM) | relative viability (Alisertib + Luminespib; first compound 0.01581 µM) | relative viability (Alisertib + Luminespib; first compound 0.05 µM) | relative viability (Alisertib + Luminespib; first compound 0.1581 µM) | relative viability (Alisertib + Luminespib; first compound 0.5 µM) | relative viability (Alisertib + Foretinib; first compound 0.005 µM) | relative viability (Alisertib + Foretinib; first compound 0.01581 µM) | relative viability (Alisertib + Foretinib; first compound 0.05 µM) | relative viability (Alisertib + Foretinib; first compound 0.1581 µM) | relative viability (Alisertib + Foretinib; first compound 0.5 µM) | relative viability (Alisertib + Linsitinib; first compound 0.005 µM) | relative viability (Alisertib + Linsitinib; first compound 0.01581 µM) | relative viability (Alisertib + Linsitinib; first compound 0.05 µM) | relative viability (Alisertib + Linsitinib; first compound 0.1581 µM) | relative viability (Alisertib + Linsitinib; first compound 0.5 µM)
LOU-NH91 | 0.79 | 0.731 | 0.551 | 0.326 | 0.271 | 0.334 | 0.311 | 0.297 | 0.293 | 0.291 | 0.921 | 0.922 | 0.655 | 0.444 | 0.366 | 0.977 | 0.941 | 0.818 | 0.491 | 0.403
LU99A | 0.846 | 0.634 | 0.206 | 0.211 | 0.123 | 0.245 | 0.3 | 0.219 | 0.201 | 0.177 | 0.741 | 0.762 | 0.361 | 0.27 | 0.205 | 0.532 | 0.511 | 0.193 | 0.177 | 0.168
LXF-289 | 0.847 | 0.586 | 0.191 | 0.173 | 0.137 | 0.455 | 0.325 | 0.16 | 0.0792 | 0.142 | 0.858 | 0.675 | 0.218 | 0.187 | 0.157 | 0.843 | 0.814 | 0.21 | 0.194 | 0.116
NCI-H23 | 0.677 | 0.562 | 0.334 | 0.175 | 0.143 | 0.219 | 0.236 | 0.204 | 0.224 | 0.214 | 0.759 | 0.452 | 0.269 | 0.235 | 0.211 | 0.621 | 0.545 | 0.228 | 0.191 | 0.155
NCI-H322M | 1.16 | 1.3 | 1.13 | 0.576 | 0.35 | 0.84 | 0.671 | 0.475 | 0.37 | 0.452 | 0.896 | 0.925 | 0.649 | 0.402 | 0.397 | 0.895 | 0.883 | 0.435 | 0.459 | 0.356
NCI-H441 | 0.925 | 0.365 | 0.106 | 0.158 | 0.132 | 0.369 | 0.364 | 0.223 | 0.218 | 0.242 | 0.845 | 0.546 | 0.308 | 0.262 | 0.232 | 0.504 | 0.333 | 0.243 | 0.129 | 0.129
NCI-H460 | 1.13 | 0.815 | 0.471 | 0.0264 | 0.0172 | 0.0403 | 0.0274 | 0.0247 | 0.0194 | 0.0287 | 0.98 | 0.956 | 0.283 | 0.0899 | 0.0482 | 0.786 | 0.54 | 0.162 | 0.027 | 0.0144
NCI-H520 | 1.19 | 0.66 | 0.386 | 0.272 | 0.251 | 0.237 | 0.202 | 0.197 | 0.209 | 0.193 | 1.15 | 0.644 | 0.486 | 0.266 | 0.322 | 0.805 | 0.667 | 0.423 | 0.308 | 0.22
